Reference: US4820694A, “Modifications of 3-O-demethylmycinose in macrocin and lactenocin” (priority 1986, dated 1989)
Converted amounts (≈) assume the structure as drawn. Where two headings read alike, the source gives them in different places.

Assays:
[1] = tested on: Staphylococcus epidermidis EPI1; assay: standard agar-dilution MIC assay; type: cell-based; conditions: Staphylococcus epidermidis, EPI1
Method: (§1) The MIC's in Table III were determined by standard agar-dilution assays. The MIC's in Table IV were obtained using conventional brothdilution microtiter tests.

[2] = tested on: Streptococcus Group D 2041; assay: standard agar-dilution MIC assay; type: cell-based; conditions: GROUPD2041
Method: as §1

[3] = tested on: Haemophilus influenzae 76; assay: standard agar-dilution MIC assay; type: cell-based; conditions: Haemophilus influenzae, 76
Method: as §1

[4] = tested on: Staphylococcus epidermidis 222; assay: standard agar-dilution MIC assay; type: cell-based; conditions: Staphylococcus epidermidis, 222
Method: as §1

[5] = tested on: Klebsiella pneumoniae X68; assay: standard agar-dilution MIC assay; type: cell-based; conditions: Klebsiella pneumoniae, X68; agar-dilution; read-out: MIC
Method: as §1

[6] = tested on: Haemophilus influenzae C.L.; assay: standard agar-dilution MIC assay; type: cell-based; conditions: Haemophilus influenzae
Method: as §1

Escherichia coli EC14 = assay: standard agar-dilution MIC assay; type: cell-based
Method: as §1

[7] = tested on: Streptococcus Group D X66; assay: standard agar-dilution MIC assay; type: cell-based; conditions: read-out: MIC
Method: as §1

[8] = tested on: Staphylococcus aureus X400; assay: standard agar-dilution MIC assay; type: cell-based; conditions: Staphylococcus aureus, X400
Method: as §1

[9] = tested on: Staphylococcus aureus X1.1; assay: standard agar-dilution MIC assay; type: cell-based; conditions: Staphylococcus aureus, X1.1
Method: as §1

[10] = tested on: Staphylococcus aureus V41; assay: standard agar-dilution MIC assay; type: cell-based; conditions: Staphylococcus aureus, V41
Method: as §1

[11] = tested on: Pseudomonas aeruginosa X239; assay: standard agar-dilution MIC assay; type: cell-based; conditions: Pseudomonas aeruginosa, X239; agar-dilution; read-out: MIC
Method: as §1

[12] = tested on: Streptococcus pyogenes C203; assay: standard agar-dilution MIC assay; type: cell-based; conditions: Streptococcus pyogenes, C203
Method: as §1

[13] = tested on: Streptococcus pneumoniae Park I; assay: microbe, parasite or virus in culture; type: cell-based; conditions: Streptococcus pneumoniae
Method: as §1

[14] = tested on: Staphylococcus aureus S13E; assay: microbe, parasite or virus in culture; type: cell-based; conditions: Staphylococcus aureus, S13E
Method: as §1

[15] = tested on: Streptococcus pyogenes C203; assay: protection of mice experimentally infected with S. pyogenes C203; type: in vivo; conditions: mice, mg/kg × 2, doses given 1 and 4 hours postinfection, read-out: ED50
Procedure, shortened: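 Activity is given as ED50, the mg/kg dose (×2) protecting half of the mice infected with S. pyogenes C203. Compound was dosed 1 and 4 h after infection.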

[16] = agar-dilution, Ampicillin-resistant strain, read-out: MIC
[17] = agar-dilution, Ampicillin-sensitive strain, read-out: MIC

CCC1OC(=O)CC(O)C(C)C(OC2OC(C)C(OC(C)=O)C(N(C)C)C2OC(C)=O)C(CCOc2ccccc2)CC(C)C(=O)C=CC(C)=CC1COC1OC(C)C=CC1OC (stereo not shown) [Compound 42, 2',4'-Di-O-acetyl-3",4"-di(dehydrodeoxy)-20-DH-20-O-phenyl-lactenocin]
MIC [1]: 1 µg/mL (≈ 1.13 µM) | MIC [2]: 4 µg/mL (≈ 4.51 µM) | MIC [3, 16]: > 128 µg/mL | MIC [4]: 0.5 µg/mL (≈ 0.564 µM) | MIC [5]: > 128 µg/mL | MIC [6, 17]: > 128 µg/mL | MIC (Escherichia coli EC14; agar-dilution, read-out: MIC): > 128 µg/mL | MIC [7]: 4 µg/mL (≈ 4.51 µM) | MIC [8]: 0.5 µg/mL (≈ 0.564 µM) | MIC [9]: 1 µg/mL (≈ 1.13 µM) | MIC [10]: 0.5 µg/mL (≈ 0.564 µM) | MIC [11]: > 128 µg/mL | MIC [12]: 1 µg/mL (≈ 1.13 µM) | MIC [13]: 1 µg/mL (≈ 1.13 µM) | MIC [14]: 4 µg/mL (≈ 4.51 µM)

CCC1OC(=O)CC(O)C(C)C(OC2OC(C)C(O)C(N(C)C)C2O)C(CCN2C[C@H](C)C[C@H](C)C2)CC(C)C(=O)C=CC(C)=CC1COC1OC(C)C=CC1OC (stereo partly drawn) [Compound 45, 3",4"-Di(dehydrodeoxy)-20-deoxo-20-(cis-3,5-dimethylpiperidin-1-yl)-lactenocin]
MIC [2]: 0.5 µg/mL (≈ 0.609 µM) | MIC [3]: 1 µg/mL (≈ 1.22 µM) | MIC ([4]; agar-dilution, read-out: MIC): 0.12 µg/mL (≈ 0.146 µM) | MIC [5]: 128 µg/mL (≈ 156 µM) | MIC [6]: 1 µg/mL (≈ 1.22 µM) | MIC (Escherichia coli EC14): 64 µg/mL (≈ 77.9 µM) | MIC [7]: 0.25 µg/mL (≈ 0.304 µM) | MIC ([8]; agar-dilution, Methicillin-resistant strain, read-out: MIC): 0.06 µg/mL (≈ 0.0731 µM) | MIC ([9]; agar-dilution, read-out: MIC): 0.12 µg/mL (≈ 0.146 µM) | MIC ([10]; agar-dilution, Penicillin-resistant strain, read-out: MIC): 0.12 µg/mL (≈ 0.146 µM) | MIC [11]: > 128 µg/mL | MIC [12]: 0.06 µg/mL (≈ 0.0731 µM) | MIC [13]: 0.06 µg/mL (≈ 0.0731 µM) | MIC [14]: 0.06 µg/mL (≈ 0.0731 µM)

CCC1OC(=O)CC(O)C(C)C(OC2OC(C)C(O)C(N(C)C)C2O)C(CCOc2ccccc2)CC(C)C(=O)C=CC(C)=CC1COC1OC(C)C2OC(C)(C)OC2C1OC (stereo not shown) [Compound 57, 20-DH-20-O-Phenyl-lactenocin-3",4"-isopropylidene Ketal]
MIC [1]: 4 µg/mL (≈ 4.57 µM) | MIC [2]: 64 µg/mL (≈ 73.1 µM) | MIC [3, 16]: > 128 µg/mL | MIC [4]: 2 µg/mL (≈ 2.28 µM) | MIC [5]: > 128 µg/mL | MIC [6, 17]: > 128 µg/mL | MIC (Escherichia coli EC14; agar-dilution, read-out: MIC): > 128 µg/mL | MIC [7]: 32 µg/mL (≈ 36.5 µM) | MIC [8]: 4 µg/mL (≈ 4.57 µM) | MIC [9]: 4 µg/mL (≈ 4.57 µM) | MIC [10]: 4 µg/mL (≈ 4.57 µM) | MIC [11]: > 128 µg/mL | MIC [12]: 2 µg/mL (≈ 2.28 µM) | MIC [13]: 8 µg/mL (≈ 9.13 µM) | MIC [14]: 4 µg/mL (≈ 4.57 µM)

CCC1OC(=O)CC(O)C(C)C(OC2OC(C)C(O)C(N(C)C)C2O)C(CCOc2ccccc2)CC(C)C(=O)C=CC(C)=CC1COC1OC(C)C2OC(=S)OC2C1OC (stereo not shown) [Compound 59, 20-DH-20-O-Phenyl-lactenocin 3",4"-thiocarbonate]
ED50 ([15]; C203, Oral): 54 mg/kg | ED50 ([15]; C203, sc, Subcutaneous): 10 mg/kg | MIC [1]: 2 µg/mL (≈ 2.28 µM) | MIC [2]: 32 µg/mL (≈ 36.4 µM) | MIC [3, 16]: 128 µg/mL (≈ 146 µM) | MIC [4]: 0.5 µg/mL (≈ 0.569 µM) | MIC [5]: > 128 µg/mL | MIC [6, 17]: 128 µg/mL (≈ 146 µM) | MIC (Escherichia coli EC14; agar-dilution, read-out: MIC): > 128 µg/mL | MIC [7]: 16 µg/mL (≈ 18.2 µM) | MIC [8]: 1 µg/mL (≈ 1.14 µM) | MIC [9]: 1 µg/mL (≈ 1.14 µM) | MIC [10]: 1 µg/mL (≈ 1.14 µM) | MIC [11]: > 128 µg/mL | MIC [12]: 2 µg/mL (≈ 2.28 µM) | MIC [13]: 2 µg/mL (≈ 2.28 µM) | MIC [14]: 1 µg/mL (≈ 1.14 µM)
